This note sets out measurements from ChEMBL document CHEMBL1909046, “DrugMatrix in vitro pharmacology data”.

Test [1] concerns the target 5-hydroxytryptamine receptor 4 (Cavia porcellus, UniProt O70528). Format: cell membranes, Dunkin-Hartley, Striatum, Membrane. Note: in other assays of this panel Not Active means under 50% inhibition at 10 µM.
A further test has as its target T1, Interstitial collagenase (Homo sapiens, UniProt P03956).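 Note: MMP-1 enzyme inhibition assay using a peptide substrate; in other assays of this panel Not Active means under 50% inhibition at 10 µM.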
T1 sequence (P03956 whole entry): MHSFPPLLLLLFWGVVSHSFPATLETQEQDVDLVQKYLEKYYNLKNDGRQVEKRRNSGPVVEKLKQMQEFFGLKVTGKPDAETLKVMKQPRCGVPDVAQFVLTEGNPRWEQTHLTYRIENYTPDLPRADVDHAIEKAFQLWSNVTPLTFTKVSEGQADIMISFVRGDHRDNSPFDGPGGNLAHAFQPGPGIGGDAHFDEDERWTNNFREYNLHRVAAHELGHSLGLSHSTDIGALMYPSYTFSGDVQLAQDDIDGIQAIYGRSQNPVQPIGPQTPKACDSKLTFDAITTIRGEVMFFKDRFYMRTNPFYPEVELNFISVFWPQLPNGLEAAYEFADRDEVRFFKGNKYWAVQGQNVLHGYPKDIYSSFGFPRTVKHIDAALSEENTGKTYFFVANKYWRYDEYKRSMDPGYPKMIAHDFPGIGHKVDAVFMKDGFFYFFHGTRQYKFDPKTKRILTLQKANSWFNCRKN
In kind it is tissue-based, Rheumatoid synovial fibroblasts.

For test [2], the target named is T2, Alpha-1B adrenergic receptor (Rattus norvegicus, UniProt P15823).
T2 sequence (P15823 whole entry): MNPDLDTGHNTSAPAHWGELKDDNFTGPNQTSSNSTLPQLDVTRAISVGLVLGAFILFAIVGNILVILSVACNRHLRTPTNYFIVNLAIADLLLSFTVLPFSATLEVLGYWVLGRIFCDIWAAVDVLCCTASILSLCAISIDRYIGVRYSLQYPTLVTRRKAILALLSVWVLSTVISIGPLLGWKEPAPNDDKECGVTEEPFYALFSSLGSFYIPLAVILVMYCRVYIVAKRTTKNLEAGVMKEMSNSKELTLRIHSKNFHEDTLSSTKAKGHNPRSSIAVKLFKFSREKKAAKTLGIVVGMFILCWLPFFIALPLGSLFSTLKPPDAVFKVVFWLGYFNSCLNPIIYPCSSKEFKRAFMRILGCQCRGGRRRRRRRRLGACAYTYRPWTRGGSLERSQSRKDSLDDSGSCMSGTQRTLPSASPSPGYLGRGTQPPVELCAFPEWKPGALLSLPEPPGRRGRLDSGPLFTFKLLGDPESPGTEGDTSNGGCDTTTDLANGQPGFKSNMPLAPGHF
The experiment in a line: DRUGMATRIX: Alpha-1B adrenergic receptor radioligand binding (ligand: prazosin). The conditions noted are these: Not Active = under 50% inhibition at 10 µM. In kind it is cell membranes, Wistar, Liver, Membrane.

A further test addresses T3, Neutrophil elastase (Homo sapiens, UniProt P08246).
T3 sequence (P08246 whole entry): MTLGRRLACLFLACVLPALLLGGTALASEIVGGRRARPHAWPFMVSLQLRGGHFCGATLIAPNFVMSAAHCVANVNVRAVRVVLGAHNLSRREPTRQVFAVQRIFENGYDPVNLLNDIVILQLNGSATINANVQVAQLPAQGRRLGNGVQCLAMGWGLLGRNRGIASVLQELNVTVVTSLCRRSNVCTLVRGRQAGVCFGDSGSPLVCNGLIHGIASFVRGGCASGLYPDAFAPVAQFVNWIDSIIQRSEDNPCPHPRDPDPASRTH
Format: tissue-based.

A short description of test [3]: DRUGMATRIX: Calcium Channel Type L, Dihydropyridine radioligand binding (ligand: [3H] Nitrendipine). Format: cell membranes, Rattus norvegicus, Wistar, Cerebral cortex, Membrane. The conditions noted are these: Not Active = under 50% inhibition at 10 µM.
For the next test, the target named is Adenosine receptor A2a (Homo sapiens, UniProt P29274). The experiment in a line: DRUGMATRIX: Adenosine A2A radioligand binding (ligand: […]). Format: cell membranes, HEK293, Membrane. The conditions noted are these: hek293; Not Active = under 50% inhibition at 10 µM.
Adenosine receptor A2a, sequence (P29274 whole entry): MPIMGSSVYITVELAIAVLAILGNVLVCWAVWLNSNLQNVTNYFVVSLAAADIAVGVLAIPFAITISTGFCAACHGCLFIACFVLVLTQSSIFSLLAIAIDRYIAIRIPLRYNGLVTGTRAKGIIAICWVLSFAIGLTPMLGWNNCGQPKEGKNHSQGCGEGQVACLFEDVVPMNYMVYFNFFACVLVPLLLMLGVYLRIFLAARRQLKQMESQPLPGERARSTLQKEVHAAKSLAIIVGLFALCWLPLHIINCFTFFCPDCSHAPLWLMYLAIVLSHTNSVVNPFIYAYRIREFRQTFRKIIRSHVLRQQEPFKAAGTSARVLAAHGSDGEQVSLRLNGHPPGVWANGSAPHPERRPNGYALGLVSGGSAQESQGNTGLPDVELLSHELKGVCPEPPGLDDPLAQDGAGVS
Test [4] can be described thus: DRUGMATRIX: Glutamate, NMDA, Phencyclidine radioligand binding (ligand: [3H] TCP). In kind it is cell membranes, Rattus norvegicus, Wistar, Cerebral cortex, Membrane. The conditions noted are these: Not Active = under 50% inhibition at 10 µM.
In test [5] the target is T4, Polyunsaturated fatty acid lipoxygenase ALOX15 (Oryctolagus cuniculus, UniProt P12530).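 Note: inhibition of 15-lipoxygenase enzyme activity measured with linoleic acid as the substrate; in other assays of this panel Not Active means under 50% inhibition at 10 µM.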
T4 sequence (P12530 whole entry): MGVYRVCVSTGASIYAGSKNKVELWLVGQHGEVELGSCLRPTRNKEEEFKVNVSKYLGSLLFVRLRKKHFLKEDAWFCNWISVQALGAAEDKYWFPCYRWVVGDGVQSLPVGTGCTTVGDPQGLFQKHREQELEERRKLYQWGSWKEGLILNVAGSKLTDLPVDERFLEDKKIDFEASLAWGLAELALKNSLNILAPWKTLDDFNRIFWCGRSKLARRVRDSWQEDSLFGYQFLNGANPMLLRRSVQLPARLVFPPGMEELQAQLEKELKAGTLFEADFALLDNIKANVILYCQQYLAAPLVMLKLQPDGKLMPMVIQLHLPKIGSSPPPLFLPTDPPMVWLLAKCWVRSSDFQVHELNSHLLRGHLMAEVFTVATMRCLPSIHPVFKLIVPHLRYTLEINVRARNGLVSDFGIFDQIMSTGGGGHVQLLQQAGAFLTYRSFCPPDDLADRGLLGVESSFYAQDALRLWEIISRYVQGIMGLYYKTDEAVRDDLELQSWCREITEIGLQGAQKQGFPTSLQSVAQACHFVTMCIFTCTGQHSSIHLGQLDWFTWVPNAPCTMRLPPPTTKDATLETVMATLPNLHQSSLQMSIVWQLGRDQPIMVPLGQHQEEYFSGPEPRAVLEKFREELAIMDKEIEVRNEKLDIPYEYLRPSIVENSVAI
Briefly: biochemical. Format: tissue-based, Reticulocytes.

Test [6] deals with T5, Neuropeptide Y receptor type 1 (Homo sapiens, UniProt P25929).
T5 sequence (P25929 whole entry): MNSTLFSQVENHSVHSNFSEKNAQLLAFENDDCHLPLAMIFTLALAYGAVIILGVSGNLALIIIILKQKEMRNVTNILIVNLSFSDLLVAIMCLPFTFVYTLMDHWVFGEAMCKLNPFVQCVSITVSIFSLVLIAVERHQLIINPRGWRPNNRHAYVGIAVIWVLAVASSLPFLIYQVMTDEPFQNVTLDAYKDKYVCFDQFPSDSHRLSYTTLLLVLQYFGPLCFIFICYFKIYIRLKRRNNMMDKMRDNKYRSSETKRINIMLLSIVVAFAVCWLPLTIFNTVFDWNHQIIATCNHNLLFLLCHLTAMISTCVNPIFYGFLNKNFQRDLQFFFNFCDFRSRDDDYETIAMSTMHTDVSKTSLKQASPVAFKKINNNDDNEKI
Format: cell membranes, Membrane. The conditions noted are these: sk-n-mc.

Another test has as its target Glycine receptor (Rattus norvegicus, UniProt P22771+P24524+P07727+P20781). Format: cell membranes, Wistar, Spinal cord, Membrane. Note: in other assays of this panel Not Active means under 50% inhibition at 10 µM.
A short description of test [7]: DRUGMATRIX: Interleukin IL-1 radioligand binding (ligand: [125I] interleukin 1beta). The conditions noted are these: nih3t3; Not Active = under 50% inhibition at 10 µM. In kind it is cell membranes, Membrane.

5-hydroxytryptamine receptor 4, sequence (O70528 whole entry): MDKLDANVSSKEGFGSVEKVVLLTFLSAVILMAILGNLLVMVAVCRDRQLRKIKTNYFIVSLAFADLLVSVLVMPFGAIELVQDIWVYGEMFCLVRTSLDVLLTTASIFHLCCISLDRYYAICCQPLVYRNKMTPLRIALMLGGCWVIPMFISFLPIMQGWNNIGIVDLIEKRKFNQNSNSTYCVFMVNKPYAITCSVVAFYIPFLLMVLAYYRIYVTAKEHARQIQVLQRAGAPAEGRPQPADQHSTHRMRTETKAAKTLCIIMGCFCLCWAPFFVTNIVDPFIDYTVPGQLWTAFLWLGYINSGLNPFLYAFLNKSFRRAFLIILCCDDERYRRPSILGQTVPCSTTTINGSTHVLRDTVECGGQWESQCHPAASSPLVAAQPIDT

A word on the IC50: it is the concentration at which inhibition is half-maximal. In general, Ki refers to the equilibrium dissociation constant of an inhibitor or competing ligand from its target. Regarding `Clc1ccc(C(c2ccccc2Cl)C(Cl)Cl)cc1` (stereo not drawn) [MITOTANE], the IC50 entry (in test [1]; at Interstitial collagenase; in [2]; against Neutrophil elastase; in test [3]; on Adenosine receptor A2a) was “Not Active” throughout. For the same molecule, the IC50 entry (in test [4]; in test [5] (reticulocytes); in test [6]; at Glycine receptor; in test [7]) was “Not Active” each time. Besides, the Ki entry in test [3], in test [4] and in test [7] was “Not Active” each time.
Regarding `O=C1c2c(O)ccc(O)c2C(=O)c2c(NCCNCCO)ccc(NCCNCCO)c21` [MITOXANTRONE], the IC50 entry (in test [1]; against Interstitial collagenase; in [2]; against Neutrophil elastase; in [3]; at Adenosine receptor A2a) was “Not Active” in each case. The IC50 result in [4] was “Not Active”; in test [5] (read-out: IC50), 1790 nM; in test [6] it was “Not Active”; against Glycine receptor it was “Not Active”; in [7] it was “Not Active”. In addition, the inhibition constant (Ki) entry in test [3], in [4] and in test [7] was “Not Active” in each case.
Consider `COc1c(C)c2c(c(O)c1C/C=C(\C)CCC(=O)OCCN1CCOCC1)C(=O)OC2` [MYCOPHENOLATE MOFETIL], for which the IC50 result (in [1]; on Interstitial collagenase; in test [2]; against Neutrophil elastase; in [3]; at Adenosine receptor A2a) was “Not Active” throughout. In addition, the IC50 entry (in test [4]; in test [5] (reticulocytes); in test [6]; against Glycine receptor; in test [7]) was “Not Active” each time. Moreover, the Ki entry in [3], in [4] and in [7] was “Not Active” throughout.
Regarding `COC(=O)C1=C(C)NC(C)=C(C(=O)OC)C1c1ccccc1[N+](=O)[O-]` [NIFEDIPINE], the IC50 result in test [1] was “Not Active”; at Interstitial collagenase, “Not Active”; in test [2], “Not Active”; against Neutrophil elastase it was “Not Active”; in test [3] (read-out: IC50) it was 48 nM; on Adenosine receptor A2a, “Not Active”. The IC50 entry in test [4] is “Not Active”; in test [5] (read-out: IC50), 15100 nM; in test [6] it was “Not Active”; against Glycine receptor, “Not Active”; in test [7], “Not Active”. In addition, the figures for the inhibition constant (Ki) in test [3] (read-out: Ki), in test [4] and in test [7] were 31 nM, “Not Active” and “Not Active”, respectively.
For the molecule `NNc1ccccc1` [PHENYLHYDRAZINE], the IC50 result (in [1]; against Interstitial collagenase; in test [2]; against Neutrophil elastase; in test [3]; at Adenosine receptor A2a) was “Not Active” throughout. Moreover, the IC50 result was “Not Active” in [4]; 1670 nM in test [5] (read-out: IC50); “Not Active” in [6]; “Not Active” at Glycine receptor; “Not Active” in [7]. Moreover, the Ki result in test [3], in [4] and in [7] was “Not Active” each time.
Turning to `CC(=O)[C@H]1CC[C@H]2[C@@H]3CCC4=CC(=O)CC[C@]4(C)[C@H]3CC[C@]12C` [PROGESTERONE], the IC50 entry (in test [1]; on Interstitial collagenase; in test [2]; at Neutrophil elastase; in test [3]; on Adenosine receptor A2a) was “Not Active” each time. The IC50 result (in test [4]; in test [5] (reticulocytes); in [6]; against Glycine receptor; in [7]) was “Not Active” in each case. Also, the Ki entry in test [3], in [4] and in test [7] was “Not Active” throughout.
As to `NC(=O)c1ncn([C@@H]2O[C@H](CO)[C@@H](O)[C@H]2O)n1` [RIBAVIRIN], the IC50 entry (in test [1]; against Interstitial collagenase; in test [2]; against Neutrophil elastase; in test [3]; at Adenosine receptor A2a) was “Not Active” each time. Also, the half-inhibitory concentration (IC50) result (in test [4]; in [5] (reticulocytes); in [6]; at Glycine receptor; in test [7]) was “Not Active” throughout. The Ki result in test [3], in [4] and in test [7] was “Not Active” throughout.
